Experiment: Broadband acoustic resonance dissolution spectroscopy (BARDS) dissolution profile in distilled water
Format: physicochemical
Settings: 0.4M in 100 ml of double distilled water
Protocol: The inside of the glass was cleaned with distilled water whilst ensuring the outside of the glass is dry with particular care taken to prevent moisture from affecting the microphone. The microphone is placed on the outside of the glass, 5 cm above the 100 ml volume of water and 1.8 cm from the top of the glass. Securing the microphone above the volume line delivers a better spectrum and the distances aid in reproducibility. The microphone and the wire connection to the glass are secured with adhesive tape. 100 mls of distilled water is accurately poured into the glass and set stirring using a magnetic stirrer. The stirring solution is recorded for 30 seconds prior to addition of the analyte compound to record the resonant frequencies of the vessel (spectrum background). The concentration of the analyte compound is 1.37 M where saturation levels allow. The analyte compound is added carefully all at once from a weighing boat to the stirring solution, with care taken to ensure no sample is lost to the glass sides. The sample spectrum is recorded for a total of 800 seconds. Raw data was saved in .wav format files. From these files the spectrum can be replayed acoustically with any media program. This allows data points to be selected using the mouse cursor and saved in a text format file for transplantation into a data manipulation program such as Excel™ or Sigmaplot™. […]

For `O=S(=O)([O-])[O-].[Cu+2]` [anhydrous form, Anhydrous copper sulphate], the “time required for complete dissolution” value was 75 s.

Source: patent US8813566B2, “Instrumentation and analytical techniques suitable for broadband acoustic resonance dissolution spectroscopy” (University College Cork—National University of Ireland, priority 2008, dated 2014)
